Test results as given in paper PMC9116245, “New 1,2,3-triazole linked ciprofloxacin-chalcones induce DNA damage by inhibiting human topoisomerase I& II and tubulin polymerization” (Journal of Enzyme Inhibition and Medicinal Chemistry, 2022).

Legend:
Caco-2 = assay: MTT assay; type: cell-based; details: Homo sapiens; Caco-2, MTT assay, 24 h incubation
Procedure: (§1) The proliferation of colorectal cancer cells (HCT116, HT29 and Caco-2) was assessed using MTT assay as previously reported. Cells were treated with increasing concentrations of 1, 5, 10, 20, 40, 80 or 100 µM of CP hybrids 4a-j, doxorubicin, or DMSO. See Supplementary Appendix A.

HCT116 = assay: MTT assay; type: cell-based; details: Homo sapiens, HCT-116, 24 h incubation
Procedure: as §1

HT-29 = assay: MTT assay; type: cell-based; details: Homo sapiens; HT-29, MTT assay, 24 h incubation
Procedure: as §1

polymerised tubulin = assay: Western blot of polymerised tubulin in HCT116 cells; type: cell-based, human; details: HCT116, IC50 values of compounds
Procedure: The process of tubulin polymerisation in the cells is important for the completion of mitosis and is targeted for cancer treatment. It has been reported that the suppression of tubulin polymerisation will arrest the cells at the G2/M and it eventually leads to cell death. To test the tubulin-disruptive effect of the CP hybrids, HCT116 cells were analysed by immunocytochemistry. HCT116 cells were incubated for 36 h with IC50 of the CP hybrids (4a, 4b, 4e, 4i, and 4j), nocodazole (a well-known tubulin polymerisation inhibitor, as a positive control), DMSO or Paclitaxel (a well-known tubulin polymerisation inducer, as a negative control), and tubulin was visualised by immunofluorescence microscopy. An antibody for α-tubulin was used. […] Moreover, a Western blot was performed to verify the tubulin polymerisation inhibition ability of the synthesised compounds (Figure 8(B)). The level of polymerised tubulin was decreased in HCT116 cells treated with IC50 values of CP hybrids 4a, 4b, 4e, 4i, 4j, or nocodazole.
Western blotting analysis for HCT116 cells was performed according to the reported procedure in the literature[77–79] to determine the effects of CP hybrids; 4a, 4b, 4e, 4i, and 4j on the expression of polymerised tubulin, γH2AX, p-ATR, p-CHK1, and p-Cdc25C by using the appropriate antibody. See Supplementary Appendix A.

[1] = system: 59 human cancer cell lines; assay: NCI one-dose screen, whole panel; type: cell-based; details: Homo sapiens, mean over the panel, read-out: Mean Growth Percent
Procedure: (§2) For screening of anticancer properties, all the developed compounds were chosen by the (NCI) for in-vitro antitumor evaluation. The assay was carried out using 59 human cancer cell lines obtained from nine tumour subpanels (breast, ovarian, melanoma, leukaemia, renal, CNS, lung, prostate, and colon cancer cell lines). Compounds were assessed at a 10 µM concentration. […] Also, hybrids 4a, 4b, 4e, 4i and 4j produced significant anti-proliferative effect in several cancer cells, particularly in leukaemia (RPMI-8226) and colon (HCT116) cells with growth percent of 47.87, −14.59, −24.56, −24.42, −15.84, −9.74, −53.36, −10.26, −31.29, and −39.51%, respectively.
(§3) The method description for NCI anticancer screening is provided in detail in the standard NCI-60 testing protocol.

T-47D = assay: NCI one-dose screen; type: cell-based; details: Homo sapiens, T47D, read-out: Growth Percent
How it was run: (§4)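 Standard NCI-60 single-concentration testing: 10 µM, 59 human cancer cell lines, nine tissue-of-origin subpanels; growth percent reported.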

OVCAR-3 = assay: NCI one-dose screen; type: cell-based; details: Homo sapiens; OVCAR-3, 10 µM; read-out: Growth Percent
How it was run: as §4

OVCAR-4 = assay: NCI one-dose screen; type: cell-based; details: Homo sapiens; OVCAR-4, 10 µM; read-out: Growth Percent
How it was run: as §4

OVCAR-5 = assay: NCI one-dose screen; type: cell-based; details: Homo sapiens; OVCAR-5, 10 µM; read-out: Growth Percent
How it was run: as §4

HL-60(TB) = assay: NCI one-dose screen; type: cell-based; details: Homo sapiens, read-out: Growth Percent
A549/ATCC = assay: NCI one-dose screen; type: cell-based; details: Homo sapiens, read-out: Growth Percent
How it was run: as §4

NCI-H226 = assay: NCI one-dose screen; type: cell-based; details: Homo sapiens; NCI-H226, 10 µM; read-out: Growth Percent
How it was run: as §4

HCC-2998 = assay: NCI one-dose screen; type: cell-based; details: Homo sapiens; HCC-2998, 10 µM; read-out: Growth Percent
How it was run: as §4

HS 578T = assay: NCI one-dose screen; type: cell-based; details: Homo sapiens, read-out: Growth Percent
How it was run: as §4

LOX IMVI = assay: NCI one-dose screen; type: cell-based; details: Homo sapiens, read-out: Growth Percent
How it was run: as §4

A498 = assay: NCI one-dose screen; type: cell-based; details: Homo sapiens; A498, 10 µM; read-out: Growth Percent
How it was run: as §4

IGROV1 = assay: NCI one-dose screen; type: cell-based; details: Homo sapiens, IGROV-1; IGROV1, 10 µM; read-out: Growth Percent
How it was run: as §4

SW-620 = assay: NCI one-dose screen; type: cell-based; details: Homo sapiens; SW-620, 10 µM; read-out: Growth Percent
How it was run: as §4

MCF7 = assay: NCI one-dose screen; type: cell-based; details: Homo sapiens; MCF7, 10 µM; read-out: Growth Percent
How it was run: as §4

MDA-MB-435 = assay: NCI one-dose screen; type: cell-based; details: Homo sapiens; MDA-MB-435, 10 µM; read-out: Growth Percent
How it was run: as §4

ACHN = assay: NCI one-dose screen; type: cell-based; details: Homo sapiens, read-out: Growth Percent
How it was run: as §4

MALME-3M = assay: NCI one-dose screen; type: cell-based; details: Homo sapiens, read-out: Growth Percent
How it was run: as §4

CAKI-1 = assay: NCI one-dose screen; type: cell-based; details: Homo sapiens; CAKI-1, 10 µM; read-out: Growth Percent
How it was run: as §4

UACC-257 = assay: NCI one-dose screen; type: cell-based; details: Homo sapiens; UACC-257, 10 µM; read-out: Growth Percent
How it was run: as §4

CCRF-CEM = assay: NCI one-dose screen; type: cell-based; details: Homo sapiens, read-out: Growth Percent
How it was run: as §4

HCT-116 = assay: NCI one-dose screen; type: cell-based, human; details: HCT-116, 10 µM; for activity at 10 µM: Homo sapiens, read-out: Growth Percent
Procedure: as §2, §3

RPMI-8226 = assay: NCI one-dose screen; type: cell-based, human; details: RPMI-8226, 10 µM; for activity at 10 µM: Homo sapiens, read-out: Growth Percent
Procedure: as §2, §3

SMILES	IC50 (Caco-2) [µM]	IC50 (HCT116) [µM]	IC50 (HT-29) [µM]	level of polymerised tubulin, Western blot (polymerised tubulin)	activity at 10 µM [1] [%]	activity at 10 µM (T-47D) [%]	activity at 10 µM (OVCAR-3) [%]	activity at 10 µM (OVCAR-4) [%]	activity at 10 µM (OVCAR-5) [%]	activity at 10 µM (HL-60(TB)) [%]	activity at 10 µM (A549/ATCC) [%]	activity at 10 µM (NCI-H226) [%]	activity at 10 µM (HCC-2998) [%]	activity at 10 µM (HS 578T) [%]	activity at 10 µM (LOX IMVI) [%]	activity at 10 µM (A498) [%]	activity at 10 µM (IGROV1) [%]	activity at 10 µM (SW-620) [%]	activity at 10 µM (MCF7) [%]	activity at 10 µM (MDA-MB-435) [%]	further results
O=C(/C=C/c1ccc(F)cc1)c1ccc(-n2cc(CN3CCN(c4cc5c(cc4F)c(=O)c(C(=O)O)cn5C4CC4)CC3)nn2)cc1 [Compound 4e, (E)-1-cyclopropyl-6-fluoro-7–(4-((1–(4-(3-(4-fluorophenyl)acryloyl)phenyl)-1H-1,2,3-triazol-4-yl)methyl)piperazin-1-yl)-4-oxo-1,4-dihydroquinoline-3-carboxylic acid]	4.19 ± 1.13	4.32 ± 0.98	8.67 ± 2.94	decreased	53.9	76.8	46.6	93.1	84.2	84.6	82.2	81.7	79.3	57.5	20.3	61.1	39.6	43.2	24.2	64.7	activity at 10 µM (ACHN): 88.5%; activity at 10 µM (MALME-3M): 89.2%; activity at 10 µM (CAKI-1): 36.9%; activity at 10 µM (UACC-257): 88.3%; activity at 10 µM (CCRF-CEM): 20%; Growth Percent (HCT-116): -10.26%; activity at 10 µM (HCT-116): -10.3%; activity at 10 µM (RPMI-8226): -24.6%; Growth Percent (RPMI-8226): -24.56%
O=C(/C=C/c1ccccc1)c1ccc(-n2cc(CN3CCN(c4cc5c(cc4F)c(=O)c(C(=O)O)cn5C4CC4)CC3)nn2)cc1 [Compound 4a, (E) 7-(4-((1–(4-Cinnamoylphenyl)-1H-1,2,3-triazol-4-yl)methyl)piperazin-1-yl)-1-cyclopropyl-6-fluoro-4-oxo-1,4-dihydroquinoline-3-carboxylic acid]	8.39 ± 2.46	3.57 ± 0.59	22.4 ± 3.25	decreased	87.8	96.4	90.4	102	103	99	89.8	69.6	86	80.6	55.4	76.7	75.3	90	72.9	96.3	activity at 10 µM (ACHN): 96.7%; activity at 10 µM (MALME-3M): 94.9%; activity at 10 µM (CAKI-1): 87.8%; activity at 10 µM (UACC-257): 96.7%; activity at 10 µM (CCRF-CEM): 111%; Growth Percent (HCT-116): -9.74%; activity at 10 µM (HCT-116): -9.74%; activity at 10 µM (RPMI-8226): 47.9%
